Measured values taken from patent publication US20040191172A1, “Preventive or therapeutic agents for dermatitis or alopecia, evaluation method of the agents, and transgenic mouse” (priority 2003, published 2004).

System: K5/IL-18 Tg (+) mice
Assay: Suppression of spontaneous dermatitis in K5/IL-18 transgenic (Tg (+)) mice, appearance and HE histopathology of back skin
Assay type: in vivo
Details: 1% (10 mg/mL) applied to back skin for consecutive seven days
Description: The spontaneous dermatitis (A) refers to an inflammation that reaches its peak approximately on the 8th to 12th day after birth of an IL-18-introduced mouse and disappears after about four weeks and that has been identified by the inventors of the present invention for the first time. Pathologically speaking, in this inflammation, acanthosis (epidermal thickening) , hyperkeratosis, and inflammatory cell infiltrations that neutrophilic leukocytes are contained in dermis can be observed in dermal tissue, a slight sponge state is present in the epidermal base, and abscess formation in the cuticle due to epidermal neutrophilic infiltrations is observed (FIG. 3).
The evaluation method of the present invention can be performed as a method for screening agents for preventing/treating autoimmune dermatitis. The screening can be performed, for example, by the procedures of administrating an agent to be tested in either stage, before or after the occurrence of the peak of spontaneous dermatitis, and comparing mice without administration (control) in terms of the presence or the absence of peak occurrence, the size of the peak, the speed of peak disappearance or the like.
Next, the agent of preventing/treating dermatitis of the present invention will be described more specifically by way of examples. […]

C[C@@H]1C[C@H]2[C@@H]3CCC4=CC(=O)C=C[C@]4(C)[C@@]3(F)[C@@H](O)C[C@]2(C)[C@@]1(O)C(=O)CO [dexamethasone]
death from side effects (share of treated group): about a half
